US9382295B2, “Cyclic depsipeptide compounds and their uses” (Cypralis Limited, priority 2012, dated 2016)
Values after ≈ are worked out from the molar mass of the structure shown. Like-named read-outs stand apart in the source and are kept apart here. Numbered stars: 1 amine (or outer) side, 2 acyl side, 3 side chain; on linkers, the order of the positions; unused ones are H or OH. Square brackets hold non-standard residues; d marks the D form. Peptide text beside a SMILES is read from it. X10 = Cc1cccc(/C=C/C[C@@H](C)[C@@H](O)[C@H](C(=O)[*:2])N(C)[*:1])n1; X17 = C[C@H](CCN(C)CCc1ccccn1)[C@@H](O)[C@H](C(=O)[*:2])N(C)[*:1]; X29 = C[C@H](CCN(C)Cc1ccccn1)[C@@H](O)[C@H](C(=O)[*:2])N(C)[*:1]; X21 = C[C@H](CCN(C)C1CCOCC1)[C@@H](O)[C@H](C(=O)[*:2])N(C)[*:1]; X34 = C[C@H](CCN1CCN(C)CC1)[C@@H](O)[C@H](C(=O)[*:2])N(C)[*:1]; d(aThr) = C[C@@H](O)[C@@H](N)C(=O)O; NMeL = CN[C@@H](CC(C)C)C(=O)O; dNMeL = CN[C@H](CC(C)C)C(=O)O; dNMeV = CN[C@@H](C(=O)O)C(C)C; Hiv = CC(C)[C@H](O)C(=O)O; Sar = CNCC(=O)O

Assays:
[1] = Water solubility assay (pH 7.8 buffer); assay type: physicochemical
Procedure: ***Water Solubility Assay (Measured in pH 7.8 Buffer)
The onset of precipitation, if it occurred, was detected by an increase in absorbance at 650 nm.
Assay Buffer: 35 mM HEPES pH 7.8
Stock solutions of Control and Test Compounds: 10 mM in 100% DMSO
10 mM stock solutions of control and test compounds were prepared in 100% DMSO. A series of dilutions were prepared from the stock in DMSO so that the final concentrations in the assay were 0, 3.33, 10, 25, 50, 75 and 100 μM and DMSO was limited to 1%.
Assay buffer (247.5 μl) was placed into flat bottomed transparent 96-well plate. For blank samples DMSO (2.5 μl) was added. For test and control samples 2.5 μl of the appropriate DMSO dilution stocks were added to the appropriate well. All test and control compounds were performed in triplicate.
The plates were sealed with adhesive plate seal and shaken at 250 rpm at 25° C. for 18 h on a plate shaker.
After incubation the plate seals were taken off and any bubbles observed in wells removed. The plates were read on a SpectraMaxM5 with a 5 s pre-shake at 650 nm.
Data files were transferred to the appropriate worksheet and the solubility range of the compounds was calculated from the data.
The values shown in the tables indicate the concentration in μM (micromolar) at which the compound remains in solution.

cyclophilin D (Cyp D) = cyclophilin D (Cyp D) (Homo sapiens, UniProt P30405); test: Protease-free PPIase assay, cyclophilin D; assay type: biochemical
Procedure: (§1) The protease-free PPIase assay measures the rate of cis to trans conversion of a peptide substrate catalyzed by the enzymes cyclophilin A and cyclophilin D. Addition of a cyclophilin inhibitor (e.g., a test compound) slows the catalyzed rate and a Ki value is obtained. […] 35 mM HEPES pH 7.8, filtered through a 0.2 μm filter. 50 μM DTT was added prior to use each day and then the buffer was stored on ice. Succinimide-[…]) (from Bachem AG, L-1400), 20 mg/ml prepared in 0.5 M LiCl in trifluoroethanol. All readings were taken with an Agilent 8453 Spectrophotometer which consists of a cuvette holder, stirrer and chiller to maintain a stirred cuvette temperature of 10.0±0.1° C. The temperature is monitored by the use of temperature probe. […] The inhibitor was diluted in 100% DMSO, and then added to the assay to a maximum final concentration of 0.5% DMSO in the assay. A blank spectrum was obtained, then 3 μL of enzyme was added (2 nM final concentration) and then 3 μL substrate (60 μM final concentration) added. The absorbance was measured at 330 nm for 300 s or 500 s for blank runs (NOTE: the substrate must be added in one quick injection and the measurements started immediately to minimize mixing errors). A first order rate equation was fitted to the absorbance data, for each concentration of inhibitor, to obtain the rate constant (the first 10 to 15 seconds were excluded as mixing causes errors in this portion of curve). The catalytic rate was calculated from the enzymatic rate constant minus the background rate constant. An exponential curve was generated using the catalytic rate constants versus the inhibitor concentration to obtain the Ki value for the inhibitor. The Ki value is indicative of the binding affinity between the test compound and cyclophilin A or cyclophilin D.

cyclophilin A (Cyp A) = molecular target: T1, cyclophilin A (Cyp A) (Homo sapiens, UniProt P62937); test: Protease-free PPIase assay, cyclophilin A; assay type: biochemical
T1 construct: purchased Sigma C3805
Procedure: as §1, with “ice. Human recombinant cyclophilin A (Cyp A) (Sigma C3805) enzyme was diluted to 1 μM with enzyme dilution buffer (20 mM HEPES pH 7.8, 40% glycerol, 50 μM DTT and 1 μM BSA) and stored at -20° C.” for “ice.”

[2] = 35 mM HEPES buffer, 35 mM HEPES pH 7.8, 1% DMSO, 25° C., 18 h, concentration at which compound remains in solution, read-out: Solubility
[3] = protease-free PPIase assay, class symbols, read-out: CypD Ki
[4] = protease-free PPIase assay, class symbols, read-out: CypA Ki

T1 sequence (P62937 whole entry): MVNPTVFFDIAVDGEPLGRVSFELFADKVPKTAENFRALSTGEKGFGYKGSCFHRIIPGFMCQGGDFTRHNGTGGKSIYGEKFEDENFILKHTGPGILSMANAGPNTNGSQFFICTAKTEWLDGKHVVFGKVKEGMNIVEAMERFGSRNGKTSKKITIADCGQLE
cyclophilin D (Cyp D), sequence (P30405 30-207): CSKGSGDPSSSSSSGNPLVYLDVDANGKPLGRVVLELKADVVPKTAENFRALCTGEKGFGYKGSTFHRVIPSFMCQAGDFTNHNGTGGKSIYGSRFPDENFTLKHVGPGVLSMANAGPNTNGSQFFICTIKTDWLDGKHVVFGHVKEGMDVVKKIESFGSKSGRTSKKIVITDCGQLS

Compound | solubility at 18 h ([1]; pH 7.8) [µM] | Ki (cyclophilin D (Cyp D)) [nM] | Ki (cyclophilin A (Cyp A)) [nM] | solubility at 18 h [1, 2] [µM] | Ki (cyclophilin D (Cyp D); [3]) [nM] | Ki (cyclophilin A (Cyp A); [4]) [nM]
CC(C)C[C@@H]1C(=O)N[C@H](CC(C)C)C(=O)N(C)[C@H](C(C)C)C(=O)N(C)[C@H]([C@H](O)[C@H](C)CCN(C)CCc2ccccn2)C(=O)N[C@H]([C@@H](C)O)C(=O)N(C)CC(=O)N(C)[C@@H](CC(C)C)C(=O)N[C@H](CC(C)C)C(=O)N(C)[C@H](CC(C)C)C(=O)N[C@H](C)C(=O)O[C@@H](C(C)C)C(=O)N1C [Example 4, cyclo-{(3R,4R,5S)-4-(hydroxy)-3-methyl-5-(methylamino)-1-N-[methyl-2-(pyridin-2-yl)-ethyl-amino]-hexanoic acid-Thr-Sar-MeLeu-Leu-MeLeu-Ala-D-Hiv-MeLeu-Leu-MeVal}] (cyclo([Hiv][dNMeL][dL][dNMeV][X17][d(aThr)][Sar][NMeL][dL][dNMeL][dA])) |  |  |  | 25 to 50 (≈ 33.9 to 67.8 µg/mL) | 1 to 25 | 1 to 25
CC(C)C[C@@H]1C(=O)N[C@H](CC(C)C)C(=O)N(C)[C@H](C(C)C)C(=O)N(C)[C@H]([C@H](O)[C@H](C)CCN2CCN(C)CC2)C(=O)N[C@H]([C@@H](C)O)C(=O)N(C)CC(=O)N(C)[C@@H](CC(C)C)C(=O)N[C@H](CC(C)C)C(=O)N(C)[C@H](CC(C)C)C(=O)N[C@H](C)C(=O)O[C@@H](C(C)C)C(=O)N1C [Example 32, cyclo-[(3R,4R,5S)-4-(hydroxy)-3-methyl-5-(methylamino)-1-N—(N′-methylpiperazine)-hexanoic acid-Thr-Sar-MeLeu-Leu-MeLeu-Ala-D-Hiv-MeLeu-Leu-MeVal]] (cyclo([Hiv][dNMeL][dL][dNMeV][X34][d(aThr)][Sar][NMeL][dL][dNMeL][dA])) |  | 25 to 100 | 100 to 300 |  |  | 

Further lines, results first:

solubility at 18 h ([1]; pH 7.8) [µM] | Ki (cyclophilin D (Cyp D)) [nM] | Ki (cyclophilin A (Cyp A)) [nM] | solubility at 18 h [1, 2] [µM] | Ki (cyclophilin D (Cyp D); [3]) [nM] | Ki (cyclophilin A (Cyp A); [4]) [nM] | Compound
10 to 25 (≈ 13.2 to 33.1 µg/mL) | 1 to 25 | 1 to 25 |  |  |  | Cc1cccc(/C=C/C[C@@H](C)[C@@H](O)[C@@H]2C(=O)N[C@H]([C@@H](C)O)C(=O)N(C)CC(=O)N(C)[C@@H](CC(C)C)C(=O)N[C@H](CC(C)C)C(=O)N(C)[C@H](CC(C)C)C(=O)N[C@H](C)C(=O)O[C@@H](C(C)C)C(=O)N(C)[C@H](CC(C)C)C(=O)N[C@H](CC(C)C)C(=O)N(C)[C@H](C(C)C)C(=O)N2C)n1 [Example 14, cyclo-[(3R,4R,5S)-4-(hydroxy)-3-methyl-5-(methylamino)-1-(6-methyl-pyridin-2-yl)-hept-1-enoic acid-Thr-Sar-MeLeu-Leu-MeLeu-Ala-D-Hiv-MeLeu-Leu-MeVal]] (cyclo([Hiv][dNMeL][dL][dNMeV][X10][d(aThr)][Sar][NMeL][dL][dNMeL][dA]))
 |  |  | 50 to 75 (≈ 67.1 to 101 µg/mL) | 1 to 25 | 25 to 100 | CC(C)C[C@@H]1C(=O)N[C@H](CC(C)C)C(=O)N(C)[C@H](C(C)C)C(=O)N(C)[C@H]([C@H](O)[C@H](C)CCN(C)Cc2ccccn2)C(=O)N[C@H]([C@@H](C)O)C(=O)N(C)CC(=O)N(C)[C@@H](CC(C)C)C(=O)N[C@H](CC(C)C)C(=O)N(C)[C@H](CC(C)C)C(=O)N[C@H](C)C(=O)O[C@@H](C(C)C)C(=O)N1C [Example 31, cyclo-[(3R,4R,5S)-4-(hydroxy)-3-methyl-5-(methylamino)-1-N-(methyl-pyridin-2-ylmethyl-amino)-hexanoic acid-Thr-Sar-MeLeu-Leu-MeLeu-Ala-D-Hiv-MeLeu-Leu-MeVal]] (cyclo([Hiv][dNMeL][dL][dNMeV][X29][d(aThr)][Sar][NMeL][dL][dNMeL][dA]))
> 100 | 1 to 25 | 25 to 100 |  |  |  | CC(C)C[C@@H]1C(=O)N[C@H](CC(C)C)C(=O)N(C)[C@H](C(C)C)C(=O)N(C)[C@H]([C@H](O)[C@H](C)CCN(C)C2CCOCC2)C(=O)N[C@H]([C@@H](C)O)C(=O)N(C)CC(=O)N(C)[C@@H](CC(C)C)C(=O)N[C@H](CC(C)C)C(=O)N(C)[C@H](CC(C)C)C(=O)N[C@H](C)C(=O)O[C@@H](C(C)C)C(=O)N1C [Example 12, cyclo-{(3R,4R,5S)-4-(hydroxy)-3-methyl-5-(methylamino)-1-N-(methyl-(tetrahydro-pyran-4-yl)-amino)-hexanoic acid-Thr-Sar-MeLeu-Leu-MeLeu-Ala-D-Hiv-MeLeu-Leu-MeVal}] (cyclo([Hiv][dNMeL][dL][dNMeV][X21][d(aThr)][Sar][NMeL][dL][dNMeL][dA]))
